33 molecules from patent US20130116263A1, “PAK INHIBITORS FOR THE TREATMENT OF CELL PROLIFERATIVE DISORDERS” (AFRAXIS, INC., priority 2011, published 2013) can be followed below.

Assay type in all cases: biochemical
The target in one assay is PAK1 (Homo sapiens, UniProt Q13153). Kind of assay: In vitro PAK inhibition assay (Z'-LYTE, SelectScreen), PAK1. The settings on record: read-out: PAK1 IC50. In short, it runs like this: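 FRET-based Z'-LYTE readout: PAK1 phosphorylates Ser/Thr 19 peptide in 50 mM HEPES pH 7.5, 0.01% BRIJ-35, 10 mM MgCl2, 1 mM EGTA, 1% DMSO, 60 min at room temperature, followed by 60 min development.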

The target of the next assay is PAK3 (Homo sapiens, UniProt O75914). In words: In vitro PAK inhibition assay (Z'-LYTE, SelectScreen), PAK3. The settings on record: read-out: PAK3 IC50. In short, it runs like this: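 Z'-LYTE FRET format: PAK3 with Ser/Thr 20 peptide in 50 mM HEPES pH 7.5, 0.01% BRIJ-35, 10 mM MgCl2, 1 mM EGTA, 1% DMSO final. Kinase reaction 60 min at room temperature, then 60 min development and fluorescence read.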

A further assay deals with PAK2 (PAK65) (Homo sapiens, UniProt Q13177). Kind of assay: In vitro PAK inhibition assay (Z'-LYTE, SelectScreen), PAK2. The settings on record: read-out: PAK2 IC50. In short, it runs like this:
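Z'-LYTE FRET readout using Ser/Thr 20 peptide (2 μM) with 0.29–6 ng PAK2 in 50 mM HEPES pH 7.5, 0.01% BRIJ-35, 10 mM MgCl2, 1 mM EGTA, 1% DMSO. Reaction and development each ran 60 min at room temperature.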

Another assay concerns the target PAK4 (Homo sapiens, UniProt O96013). In words: In vitro PAK inhibition assay (Z'-LYTE, SelectScreen), PAK4. Put shortly: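 Z'-LYTE FRET assay with 0.1-0.75 ng PAK-4 and 2 μM Ser/Thr 20 peptide in 50 mM HEPES pH 7.5, 10 mM MgCl2, 1 mM EGTA, 0.01% BRIJ-35, 1% DMSO; ATP near apparent Km. 1 h kinase reaction at room temperature, then 1 h development; IC50 from 10-point 3-fold titrations fitted to a sigmoidal dose-response.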

Sequence of PAK2 (PAK65) (Q13177 whole entry): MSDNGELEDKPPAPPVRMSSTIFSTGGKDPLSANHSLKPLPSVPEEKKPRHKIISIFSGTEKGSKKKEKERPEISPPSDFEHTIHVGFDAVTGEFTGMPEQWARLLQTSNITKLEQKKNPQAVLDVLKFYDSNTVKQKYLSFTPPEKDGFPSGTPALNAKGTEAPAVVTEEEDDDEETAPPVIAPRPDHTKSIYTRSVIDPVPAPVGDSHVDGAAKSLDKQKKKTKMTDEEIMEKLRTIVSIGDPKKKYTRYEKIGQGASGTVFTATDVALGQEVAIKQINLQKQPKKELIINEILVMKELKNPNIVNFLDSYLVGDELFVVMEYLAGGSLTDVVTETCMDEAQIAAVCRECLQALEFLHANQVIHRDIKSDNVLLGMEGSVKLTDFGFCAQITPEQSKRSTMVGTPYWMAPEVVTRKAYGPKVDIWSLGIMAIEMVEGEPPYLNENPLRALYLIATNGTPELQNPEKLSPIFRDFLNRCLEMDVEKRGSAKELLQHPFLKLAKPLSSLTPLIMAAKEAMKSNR
Sequence of PAK1 (Q13153 whole entry): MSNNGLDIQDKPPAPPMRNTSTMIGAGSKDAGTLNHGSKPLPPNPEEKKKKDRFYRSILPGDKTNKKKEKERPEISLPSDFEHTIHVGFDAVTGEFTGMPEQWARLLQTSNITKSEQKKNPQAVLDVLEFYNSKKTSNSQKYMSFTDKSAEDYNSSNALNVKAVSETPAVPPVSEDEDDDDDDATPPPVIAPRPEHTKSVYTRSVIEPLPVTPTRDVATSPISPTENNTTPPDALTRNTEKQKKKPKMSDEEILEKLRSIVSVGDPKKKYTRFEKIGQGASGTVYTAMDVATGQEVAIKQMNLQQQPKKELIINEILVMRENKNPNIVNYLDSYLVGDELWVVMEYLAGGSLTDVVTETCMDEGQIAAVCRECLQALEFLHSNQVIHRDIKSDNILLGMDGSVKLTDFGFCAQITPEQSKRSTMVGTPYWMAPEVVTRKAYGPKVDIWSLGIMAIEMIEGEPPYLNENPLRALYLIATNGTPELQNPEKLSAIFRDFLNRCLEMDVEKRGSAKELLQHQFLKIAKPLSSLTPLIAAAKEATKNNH
Sequence of PAK4 (O96013 whole entry): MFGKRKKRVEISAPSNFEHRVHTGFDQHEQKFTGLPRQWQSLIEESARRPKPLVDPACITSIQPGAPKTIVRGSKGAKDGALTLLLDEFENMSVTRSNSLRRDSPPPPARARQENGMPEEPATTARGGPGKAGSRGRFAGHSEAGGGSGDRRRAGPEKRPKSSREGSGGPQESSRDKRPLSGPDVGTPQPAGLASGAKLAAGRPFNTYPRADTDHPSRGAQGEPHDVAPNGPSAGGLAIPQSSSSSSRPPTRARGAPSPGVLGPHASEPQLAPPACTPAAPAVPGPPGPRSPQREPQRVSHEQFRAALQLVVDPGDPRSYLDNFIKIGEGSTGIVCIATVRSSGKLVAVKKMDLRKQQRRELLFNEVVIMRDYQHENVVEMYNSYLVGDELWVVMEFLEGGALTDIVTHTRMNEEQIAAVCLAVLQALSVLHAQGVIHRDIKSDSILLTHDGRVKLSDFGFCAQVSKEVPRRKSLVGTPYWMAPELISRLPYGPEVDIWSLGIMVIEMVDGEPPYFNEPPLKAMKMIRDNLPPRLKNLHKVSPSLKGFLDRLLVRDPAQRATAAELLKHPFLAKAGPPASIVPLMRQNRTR
Sequence of PAK3 (O75914 1-544 isoform O75914-2): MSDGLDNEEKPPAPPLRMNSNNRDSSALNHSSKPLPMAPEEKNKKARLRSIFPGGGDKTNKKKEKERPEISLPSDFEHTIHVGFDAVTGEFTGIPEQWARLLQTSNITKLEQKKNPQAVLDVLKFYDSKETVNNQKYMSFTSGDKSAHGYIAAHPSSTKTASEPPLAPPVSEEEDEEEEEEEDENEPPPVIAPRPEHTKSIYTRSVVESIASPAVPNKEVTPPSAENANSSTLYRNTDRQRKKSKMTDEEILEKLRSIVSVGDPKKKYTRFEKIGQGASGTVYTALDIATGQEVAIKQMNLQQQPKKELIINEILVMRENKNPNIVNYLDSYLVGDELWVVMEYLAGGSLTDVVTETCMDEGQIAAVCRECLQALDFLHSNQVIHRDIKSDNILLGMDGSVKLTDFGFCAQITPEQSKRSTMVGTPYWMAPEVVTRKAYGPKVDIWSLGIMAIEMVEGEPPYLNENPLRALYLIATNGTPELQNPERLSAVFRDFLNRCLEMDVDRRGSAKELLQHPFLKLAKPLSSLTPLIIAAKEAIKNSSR

What is called IC50 is the concentration needed to halve the response being measured. Turning to `CCn1c(=O)c(-c2ccc(-c3nccnc3C)cc2Cl)cc2cnc(NC3CCN(C)C(=O)C3)nc21` (stereo not drawn) [Example 35], the half-maximal inhibitory concentration (IC50) was 50 to 500 nM at PAK1, 50 to 500 nM at PAK3, 50 to 500 nM at PAK2 (PAK65) and above 5000 nM on PAK4.

With `CCn1c(=O)c(-c2ccc(-c3ccnc(C)n3)cc2Cl)cc2cnc(NC3CCOCC3)nc21` [Example 8], the IC50 was 50 to 500 nM at PAK1, 50 to 500 nM on PAK3, 50 to 500 nM at PAK2 (PAK65) and above 5000 nM against PAK4.

As for `CCn1c(=O)c(-c2ccc(-c3ccc(C)nc3)cc2Cl)cc2cnc(N[C@@H]3CCOC3)nc21` [Example 56], the 50% inhibitory concentration (IC50) on PAK1 is 500 to 5000 nM; on PAK3, above 5000 nM; on PAK2 (PAK65) it was 50 to 500 nM; on PAK4, above 5000 nM.

Take `CCn1c(=O)c(-c2ccc(-c3cnccn3)cc2Cl)cc2cnc(N[C@@H]3CCOC3)nc21` [Example 60]: the IC50 at PAK1 is 50 to 500 nM; on PAK3, 500 to 5000 nM; at PAK2 (PAK65) it was 50 to 500 nM; at PAK4, above 5000 nM.

In the case of `COCCCn1c(=O)c(-c2ccc(-c3cncc(C)n3)cc2Cl)cc2cnc(N[C@H]3CCOC3)nc21` [Example 65], the IC50 on PAK1 is below 50 nM; on PAK3, 50 to 500 nM; at PAK2 (PAK65), below 50 nM; on PAK4, above 5000 nM.

Consider `CCn1c(=O)c(-c2ccc(-c3cccnc3O)cc2Cl)cc2cnc(NC3CCOCC3)nc21` [Example 48], for which the IC50 was 50 to 500 nM on PAK1, 50 to 500 nM on PAK3, 50 to 500 nM on PAK2 (PAK65) and above 5000 nM at PAK4.

For `CCn1c(=O)c(-c2ccc(-c3nccnc3C)cc2Cl)cc2cnc(NC3CCCN(C)C3)nc21` (stereo not drawn) [Example 81], the IC50 was 50 to 500 nM at PAK1, above 5000 nM on PAK3, 50 to 500 nM at PAK2 (PAK65) and above 5000 nM on PAK4.

Consider `CCn1c(=O)c(-c2ccc(-c3nccnc3C)cc2Cl)cc2cnc(NCCN(C)C)nc21` [Example 13], for which the half-maximal inhibitory concentration (IC50) is 500 to 5000 nM at PAK1, 500 to 5000 nM on PAK3, 500 to 5000 nM on PAK2 (PAK65) and above 5000 nM on PAK4.

With `CCn1c(=O)c(-c2ccc(-c3nccnc3C)cc2Cl)cc2cnc(NCCC3CCNCC3)nc21` [Example 136], the IC50 at PAK1 is below 50 nM; on PAK3, 50 to 500 nM; on PAK2 (PAK65), below 50 nM; against PAK4 it was above 5000 nM.

Turning to `Cc1cncc(-c2ccc(-c3cc4cnc(N[C@H]5CCOC5)nc4n(CCCN(C)C)c3=O)c(Cl)c2)n1` [Example 102], the half-inhibitory concentration (IC50) is below 50 nM at PAK1, 50 to 500 nM on PAK3, below 50 nM on PAK2 (PAK65) and above 5000 nM against PAK4.

Take `Cc1cncc(-c2ccc(-c3cc4cnc(N[C@@H]5CCOC5)nc4n(C4CCN(C)CC4)c3=O)c(Cl)c2)n1` [Example 107]: the IC50 at PAK1 is 50 to 500 nM; on PAK3 it was 500 to 5000 nM; on PAK2 (PAK65) it was 50 to 500 nM; on PAK4, above 5000 nM.

As to `Cc1cncc(-c2ccc(-c3cc4cnc(N[C@@H]5CCOC5)nc4n(CCCN)c3=O)c(Cl)c2)n1` [Example 97], the IC50 on PAK1 is 50 to 500 nM; on PAK3, 50 to 500 nM; at PAK2 (PAK65) it was below 50 nM; against PAK4, above 5000 nM.

Turning to `Cc1cncc(-c2ccc(-c3cc4cnc(NC5CCOCC5)nc4n(Cc4ccccc4Cl)c3=O)c(Cl)c2)n1` [Example 42], the IC50 is below 50 nM on PAK1, 50 to 500 nM on PAK3, 50 to 500 nM on PAK2 (PAK65) and above 5000 nM at PAK4.

For `CCN(CC)CCn1c(=O)c(-c2ccc(-c3cncc(C)n3)cc2Cl)cc2cnc(N[C@@H]3CCOC3)nc21` [Example 96], the IC50 at PAK1 is 50 to 500 nM; on PAK3, 500 to 5000 nM; on PAK2 (PAK65) it was 50 to 500 nM; against PAK4, above 5000 nM.

As for `CCn1c(=O)c(-c2cc(C)c(-c3noc(C)n3)cc2Cl)cc2cnc(N[C@@H]3CCOC3)nc21` [Example 73], the IC50 at PAK1 was 500 to 5000 nM; at PAK3, 500 to 5000 nM; on PAK2 (PAK65), 500 to 5000 nM; against PAK4, above 5000 nM.

On to `CCn1c(=O)c(-c2ccc(-c3nccnc3C)cc2Cl)cc2cnc(NC3C[C@@H](C)O[C@@H](C)C3)nc21` (stereo partly drawn) [Example 38], for which the IC50 at PAK1 was below 50 nM; at PAK3, 50 to 500 nM; at PAK2 (PAK65), below 50 nM; against PAK4, above 5000 nM.

Take `CCn1c(=O)c(-c2ccc(-c3cncc(C)n3)cc2Cl)cc2cnc(NCCCOCCN)nc21` [Example 133]: the IC50 on PAK1 was 50 to 500 nM; at PAK3, 500 to 5000 nM; on PAK2 (PAK65), 50 to 500 nM; against PAK4, above 5000 nM.

Turning to `CCn1c(=O)c(-c2ccc(-c3noc(C)n3)cc2Cl)cc2cnc(NCCC3CCNCC3)nc21` [Example 137], the concentration for half-maximal inhibition (IC50) on PAK1 is 50 to 500 nM; on PAK3, 50 to 500 nM; on PAK2 (PAK65), below 50 nM; against PAK4, above 5000 nM.

For `CCNc1ncc2cc(-c3ccc(-c4nccnc4C)cc3Cl)c(=O)n(CC)c2n1` [Example 6], the IC50 at PAK1 is 50 to 500 nM; at PAK3 it was 50 to 500 nM; on PAK2 (PAK65), 50 to 500 nM; against PAK4 it was above 5000 nM.

In the case of `CCn1c(=O)c(-c2ccc(-c3cnccc3C)cc2Cl)cc2cnc(N[C@@H]3CCOC3)nc21` [Example 49], the IC50 at PAK1 is 50 to 500 nM; on PAK3, 500 to 5000 nM; on PAK2 (PAK65), 500 to 5000 nM; against PAK4, above 5000 nM.

As for `CCNc1ncc2cc(-c3ccc(-c4cncc(C)n4)cc3Cl)c(=O)n([C@H]3CC[C@H](N)CC3)c2n1` [Example 117], the IC50 at PAK1 was below 50 nM; on PAK3 it was below 50 nM; on PAK2 (PAK65), below 50 nM; against PAK4 it was 500 to 5000 nM.

As for `Cc1nccnc1-c1ccc(-c2cc3cnc(N[C@@H]4CCOC4)nc3n(Cc3ccncc3)c2=O)c(Cl)c1` [Example 124], the half-inhibitory concentration (IC50) on PAK1 is 50 to 500 nM; on PAK3, 500 to 5000 nM; on PAK2 (PAK65), 50 to 500 nM; at PAK4 it was above 5000 nM.

In the case of `Cc1cncc(-c2ccc(-c3cc4cnc(NC5CCOCC5)nc4n(Cc4ccccc4C(F)(F)F)c3=O)c(Cl)c2)n1` [Example 20], the IC50 on PAK1 was 50 to 500 nM; on PAK3, 50 to 500 nM; at PAK2 (PAK65), below 50 nM; against PAK4, above 5000 nM.

For `CCn1c(=O)c(-c2ccc(-c3cnc(C)s3)cc2Cl)cc2cnc(N[C@@H]3CCOC3)nc21` [Example 55], the half-inhibitory concentration (IC50) at PAK1 is 50 to 500 nM; at PAK3 it was 500 to 5000 nM; on PAK2 (PAK65), 50 to 500 nM; at PAK4 it was above 5000 nM.

As to `CCn1c(=O)c(-c2ccc(-c3cncc(C)n3)cc2Cl)cc2cnc(NC3CCOC(C)(C)C3)nc21` (stereo not drawn) [Example 31], the IC50 was 50 to 500 nM on PAK1, 50 to 500 nM on PAK3, 50 to 500 nM on PAK2 (PAK65) and above 5000 nM at PAK4.

For `CCn1c(=O)c(-c2ccc(-c3nccnc3C)cc2Cl)cc2cnc(N[C@@H]3CCOC(C)(C)C3)nc21` (stereo in doubt) [Example 76], the concentration for half-maximal inhibition (IC50) on PAK1 was below 50 nM; at PAK3, 50 to 500 nM; at PAK2 (PAK65), below 50 nM; against PAK4, above 5000 nM.

`CCn1c(=O)c(-c2ccc(-c3cncc(C)n3)cc2Cl)cc2cnc(N[C@H]3CCOC3)nc21` [Example 27]: the concentration for half-maximal inhibition (IC50) on PAK1 is 50 to 500 nM; at PAK3, 50 to 500 nM; on PAK2 (PAK65), below 50 nM; against PAK4, above 5000 nM.

Regarding `CCn1c(=O)c(-c2ccc(-c3nccnc3C)cc2Cl)cc2cnc(NC3CCS(=O)(=O)CC3)nc21` [Example 75], the half-maximal inhibitory concentration (IC50) at PAK1 is 50 to 500 nM; at PAK3, 500 to 5000 nM; at PAK2 (PAK65), 50 to 500 nM; at PAK4, above 5000 nM.

Regarding `CCn1c(=O)c(-c2ccc(-c3cncc(C)n3)cc2Cl)cc2cnc(NCCC3CCNCC3)nc21` [Example 135], the IC50 at PAK1 was below 50 nM; on PAK3, below 50 nM; at PAK2 (PAK65) it was below 50 nM; at PAK4, above 5000 nM.

As for `CCn1c(=O)c(-c2cc(C)c(-c3cncc(C)n3)cc2Cl)cc2cnc(N[C@H]3CCOC3)nc21` [Example 72], the half-inhibitory concentration (IC50) on PAK1 is below 50 nM; at PAK3, 50 to 500 nM; on PAK2 (PAK65), below 50 nM; on PAK4 it was above 5000 nM.

As for `CCn1c(=O)c(-c2ccc(-c3noc(C)n3)cc2Cl)cc2cnc(NCCC3CCN(C)CC3)nc21` [Example 93], the IC50 on PAK1 is below 50 nM; at PAK3, 50 to 500 nM; on PAK2 (PAK65), below 50 nM; against PAK4, above 5000 nM.

Regarding `CCn1c(=O)c(-c2ccc(-c3cnccc3C)cc2Cl)cc2cnc(NC3CCOCC3)nc21` [Example 47], the IC50 on PAK1 was 50 to 500 nM; at PAK3, 50 to 500 nM; on PAK2 (PAK65) it was 500 to 5000 nM; at PAK4 it was above 5000 nM.

Take `CCn1c(=O)c(-c2ccc(-c3nccnc3C)cc2C)cc2cnc(NC3CCOCC3)nc21` [Example 1, 8-ethyl-6-(2-methyl-4-(3-methylpyrazin-2-yl)phenyl)-2-(tetrahydro-2H-pyran-4-ylamino)pyrido[2,3-d]pyrimidin-7(8H)-one]: the 50% inhibitory concentration (IC50) at PAK1 was 50 to 500 nM; at PAK3, 50 to 500 nM; on PAK2 (PAK65) it was 50 to 500 nM; on PAK4, above 5000 nM.
